Counter-ions that a name gives are not always drawn.
System: patients having a history of atrial fibrillation or atrial flutter
Assay: prospective, multinational, multicentre, double-blind clinical study versus placebo: cardiovascular hospitalizations and mortality
Format: in vivo, human
Protocol: The patients had to have a history of atrial fibrillation or flutter and/or could be in normal sinus rhythm or in atrial fibrillation or flutter at inclusion.
The patient recruitment was carried out by taking into account the following inclusion criteria:
• 1) One of the following risk factors had to be present: • age equal to or greater than 70 years, • hypertension (taking antihypertensives of at least two different classes), • diabetes, • history of cerebral stroke (transient ischemic event or completed cerebral stroke) or of systemic embolism, • left atrial diameter greater than or equal to 50 mm measured by echocardiography, • left ventricular ejection fraction less than 40%, measured by two-dimensional echography; or • age equal to or above 70, or even above 75, possibly combined with at least one of the risk factors below: • hypertension (taking antihypertensives of at least two different classes), • diabetes, • history of cerebral stroke (transient ischemic event or completed cerebral stroke) or of systemic embolism, • left atrial diameter greater than or equal to 50 mm measured by echocardiography, • left ventricular ejection fraction less than 40%, measured by two-dimensional echography; • 2) availability of an electrocardiogram carried out during the past 6 months in order to document the presence or the history of atrial fibrillation or flutter; • 3) availability of an electrocardiogram carried out during the past 6 months in order to document the presence or absence of normal sinus rhythm. […] Criteria Related to a Cardiac Condition: • Patients in permanent atrial fibrillation • Patients in unstable hemodynamic condition such as acute pulmonary edema within 12 hours prior to start of study medication; cardiogenic shock; treatment with IV pressor agents; patients on respirator; congestive heart failure of stage NYHA IV within the last 4 weeks; uncorrected, hemodynamically significant primary obstructive valvular disease; hemodynamically significant obstructive cardomyopathy; a cardiac operation or revascularization procedure within 4 weeks preceding randomization • Planned major non-cardiac or cardiac surgery or procedures including surgery for valvular heart disease, coronary artery bypass graft (CABG), percutaneous coronary intervention (PCI), or on urgent cardiac transplantation list • Acute myocarditis or constrictive pericarditis • Bradycardia<50 bpm and/or PR-interval>0.28 sec on the last 12-lead ECG. • Significant sinus node disease (documented pause of 3 seconds or more) or 2nd or 3rd degree atrioventricular block (AV-block) unless treated with a pacemaker. Criteria Related to Concomitant Medications:
Need of a concomitant medication that is prohibited in this trial, including the requirement for Vaughan Williams Class I and III anti-arrhythmic drugs, that would preclude the use of study drug during the planned study period, i.e. patients have to stop others antiarrhythmics such as Vaughan Williams Class I and III anti-arrhythmic drugs, for example amiodarone, flecamide, propafenone, quinidine, disopyramide, dofetilide, solatol.
• Plasma potassium<3.5 mmol/l (as anti-arrhythmic drugs can be arrhythmogenic in patients with hypokalemia, this must be corrected prior to randomization. • A calculated GFR at baseline<10 ml/min using the Cockroft Gault formula (GFR [ml/min]=(140−AGE [years]*WEIGHT [kilograms]*CONSTANT/CREATININE [μmol/L], where CONSTANT is […]).
Furthermore, the concomitant use of grapefruit juice and all potent inhibitors of CYP3A4 such as ketoconazole were prohibited.
Treatment was initiated using tablets containing either the placebo or an amount of dronedarone hydrochloride corresponding to 400 mg of dronedarone at a rate of twice a day with the morning and evening meal and more specifically at a rate of one tablet in the morning during or shortly after breakfast and one tablet in the evening during or shortly after dinner. […]

[1] = NYHA class III and LVEF below 0.35, stable, 400 mg BID, N = 24
[2] = NYHA class III congestive heart failure, stable hemodynamic condition, vs placebo
[3] = NYHA class III congestive heart failure, stable, vs placebo
[4] = all patients, treated group 2301 of 4628
[5] = all patients, treated group 2301 of 4628, 400 mg twice a day
[6] = congestive heart failure, LVEF below 0.35, stable, vs placebo
[7] = patients with a structural heart disease
[8] = patients with a structural heart disease, vs placebo
[9] = patients with coronary heart disease (668 treated patients)
[10] = patients with coronary heart disease, vs placebo
[11] = patients with permanent atrial fibrillation/flutter, vs placebo

CCCCc1oc2ccc(NS(C)(=O)=O)cc2c1C(=O)c1ccc(OCCCN(CCCC)CCCC)cc1 [dronedarone hydrochloride, 2-n-Butyl-3-[4-(3-di-n-butylaminopropoxy)benzoyl]-5-methylsulphonamidobenzofuran]
HR (95% CI): cardiovascular hospitalization and death (Left atrium diameter >=50 mm (N 955), vs placebo): 0.77 (0.63, 0.94) | decrease of cardiovascular hospitalization and death (Left atrium diameter >=50 mm, vs placebo): 23% | Endpoint's composition: Cardiovascular death [1]: 2 | Endpoint's composition: Cardiovascular hospitalization [1]: 10 | Endpoint's composition: Death from any cause [1]: 3 | Endpoint's composition: Non cardiovascular death [1]: 1 | number of events: death (NYHA class III congestive heart failure, stable (91 treated patients)): 12 events | number of events: cardiovascular hospitalization and death (NYHA class III congestive heart failure, stable hemodynamic condition (91 treated patients)): 40 events | decrease of cardiovascular hospitalization or death [2]: 44% | relative risk: cardiovascular hospitalization or death [2]: 0.56 | decrease of death [3]: 34% | relative risk: death [3]: 0.66 | HR (95% CI): cardiovascular hospitalization and death (Prior cerebrovascular accident or systemic embolism (N 616), vs placebo): 0.80 (0.62, 1.02) | decrease of cardiovascular hospitalization and death (Prior cerebrovascular accident or systemic embolism, vs placebo): 20% | number of arrhythmic deaths (deaths from cardiac arrhythmia) [4]: 26 arrhythmic deaths | number of cardiovascular deaths [4]: 65 cardiovascular deaths | number of deaths: mortality from any cause [4]: 116 deaths | number of events: cardiovascular hospitalizations [4]: 675 events | number of events: cardiovascular hospitalizations and sudden death [4]: 684 events | number of events: cardiovascular hospitalizations for atrial fibrillation or supraventricular arrhythmia [4]: 296 events | number of events: cardiovascular hospitalizations for transient ischemic event or stroke [4]: 43 events | number of events: hospitalizations associated with class IV congestive heart failure [4]: 42 events | number of events: hospitalizations associated with congestive heart failure [4]: 112 events | number of sudden deaths [4]: 14 sudden deaths | number of events: cardiovascular hospitalizations and cardiovascular mortality [5]: 701 events | number of events: cardiovascular hospitalizations and mortality (principal judgement criterion) [5]: 734 events | number of events: death (congestive heart failure, LVEF below 0.35, stable (92 treated patients)): 10 events | decrease of cardiovascular hospitalization or death [6]: 32% | decrease of death [6]: 45% | relative risk: cardiovascular hospitalization or death [6]: 0.68 | relative risk: death [6]: 0.55 | number of events: cardiovascular hospitalization and death (congestive heart failure, left ventricular ejection fraction below 0.35, stable hemodynamic condition (92 treated patients)): 39 events | reduction in the risk of sudden death (patients not taking diuretics, vs placebo): 34% | number of events: cardiovascular hospitalizations and mortality (patients who developed permanent atrial fibrillation/flutter): 29 events | number of events: cardiovascular death [7]: 48 events | number of events: cardiovascular hospitalization [7]: 452 events | number of events: cardiovascular hospitalization or death [7]: 486 events | number of events: death [7]: 77 events | decrease of cardiovascular deaths [8]: 33% | decrease of cardiovascular hospitalization [8]: 24% | decrease of cardiovascular hospitalization or death [8]: 24% | decrease of death [8]: 24% | relative risk: cardiovascular death [8]: 0.67 | relative risk: cardiovascular hospitalization [8]: 0.76 | relative risk: cardiovascular hospitalization or death [8]: 0.76 | relative risk: death [8]: 0.76 | number of events: cardiovascular death [9]: 26 events | number of events: cardiovascular hospitalization [9]: 233 events | number of events: cardiovascular hospitalization or death [9]: 252 events | number of events: death [9]: 39 events | decrease of cardiovascular death [10]: 40% | decrease of cardiovascular hospitalization [10]: 26% | decrease of cardiovascular hospitalization or death [10]: 27% | decrease of death [10]: 36% | relative risk: cardiovascular death [10]: 0.602 | relative risk: cardiovascular hospitalization [10]: 0.740 | relative risk: cardiovascular hospitalization or death [10]: 0.733 | relative risk: death [10]: 0.643 | reduction in cardiovascular hospitalizations and mortality [11]: 33% | relative risk: cardiovascular hospitalizations and mortality [11]: 0.67 | patients who developed permanent atrial fibrillation/flutter (treated group 2301 of 4628, p<0.001 vs placebo (294)): 178 patients | decrease of cardiovascular hospitalization associated with class IV congestive heart failure (vs placebo, all patients): 22% | decrease of cardiovascular hospitalization associated with congestive heart failure (vs placebo, all patients): 14.5% | reduction in cardiovascular hospitalizations (vs placebo, all patients): 25.5% | reduction in cardiovascular hospitalizations and cardiovascular deaths (vs placebo, all patients): 25.5% | reduction in cardiovascular hospitalizations and sudden deaths (vs placebo, all patients): 25.5% | reduction in cardiovascular hospitalizations for atrial fibrillation (vs placebo, all patients): 38.4% | reduction in cardiovascular hospitalizations for transient ischemic event or stroke (vs placebo, all patients): 34% | reduction in cardiovascular mortality (vs placebo, all patients): 30.2% | reduction in sudden death (vs placebo, all patients): 59.5% | reduction in the risk of a first cardiovascular hospitalization not due to a supraventricular arrhythmia (vs placebo, all patients): 14.5% | reduction of arrhythmic death (vs placebo, all patients): 45% | reduction of death (any cause) (vs placebo, all patients): 15.6% | relative risk: arrhythmic death (vs placebo, all patients): 0.55 | relative risk: cardiovascular hospitalizations (vs placebo, all patients): 0.745 | relative risk: cardiovascular hospitalizations and cardiovascular deaths (vs placebo, all patients): 0.745 | relative risk: cardiovascular hospitalizations and sudden deaths (vs placebo, all patients): 0.743 | relative risk: cardiovascular hospitalizations for atrial fibrillation or supraventricular arrhythmia (vs placebo, all patients): 0.616 | relative risk: cardiovascular hospitalizations for transient ischemic event or stroke (vs placebo, all patients): 0.66 | relative risk: cardiovascular mortality (vs placebo, all patients): 0.698 | relative risk: hospitalizations associated with class IV congestive heart failure (vs placebo, all patients): 0.78 | relative risk: hospitalizations associated with congestive heart failure (vs placebo, all patients): 0.855 | relative risk: mortality from any cause (vs placebo, all patients): 0.844 | relative risk: sudden death (vs placebo, all patients): 0.405 | relative risk: cardiovascular hospitalizations and deaths (vs placebo, all patients, 400 mg twice a day): 0.758 | reduction in cardiovascular hospitalizations and deaths (vs placebo, all patients, x=1-relative risk): 24.2%
